Experimental data: patent publication US8097733B2, “Pyrazole derivatives as 5-LO-inhibitors” (Pfizer Inc., priority 2007, dated 2012)

Experiments:
[1] = Emesis evaluation in beagle dogs, IV infusion; type: in vivo; settings: 8-12 kg beagle dogs, loading dose followed by slow infusion
Procedure: The occurrence of these gastrointestinal symptoms after administration of these compounds limited their clinical utility. Experiments are undertaken to differentiate local gastrointestinal emetic stimuli during dissolution and absorption of an oral compound from emetic stimuli produced during systemic exposure through the bloodstream. […] These findings are observed after 8-12 kg purpose-bred beagle dogs are administered 4-(3-{[4-(1-methyl-1H-pyrazol-5-yl)phenyl]thio}phenyl)tetrahydro-2H-pyran-4-carboxamide by IV infusion, using a loading dose followed by a slow infusion to attain a peak blood level over 30 minutes to 1 hour in duration. More specifically, compounds are diluted in phosphate buffered saline to a concentration where 10 ml/kg total volume was administered through an intravenous catheter using an infusion pump, with approximately 90% of the total dose being delivered in the first 5 minutes, and the remaining dose administered over the next 25 minutes. Similar delivery methods to produce an exposure that approximates the systemic pharmacokinetic profile seen with oral delivery are anticipated to give similar results. […] For compounds of the invention, emesis, can for example be evaluated by administering the named compound orally at doses of 10 mg per kg, 100 mg per kg fasted, and 100 mg per kg fed, and evaluating emesis in dogs. […]

recombinant human 5-LOX = biological target: T1, recombinant human 5-LOX (Homo sapiens, UniProt P09917); assay: Fluorescence Intensity 5-LOX Enzyme Assay; type: biochemical; settings: crude lysate of recombinant human 5-LOX; highest inhibitor concentration tested typically 25 μM
T1 sequence (P09917 1-674): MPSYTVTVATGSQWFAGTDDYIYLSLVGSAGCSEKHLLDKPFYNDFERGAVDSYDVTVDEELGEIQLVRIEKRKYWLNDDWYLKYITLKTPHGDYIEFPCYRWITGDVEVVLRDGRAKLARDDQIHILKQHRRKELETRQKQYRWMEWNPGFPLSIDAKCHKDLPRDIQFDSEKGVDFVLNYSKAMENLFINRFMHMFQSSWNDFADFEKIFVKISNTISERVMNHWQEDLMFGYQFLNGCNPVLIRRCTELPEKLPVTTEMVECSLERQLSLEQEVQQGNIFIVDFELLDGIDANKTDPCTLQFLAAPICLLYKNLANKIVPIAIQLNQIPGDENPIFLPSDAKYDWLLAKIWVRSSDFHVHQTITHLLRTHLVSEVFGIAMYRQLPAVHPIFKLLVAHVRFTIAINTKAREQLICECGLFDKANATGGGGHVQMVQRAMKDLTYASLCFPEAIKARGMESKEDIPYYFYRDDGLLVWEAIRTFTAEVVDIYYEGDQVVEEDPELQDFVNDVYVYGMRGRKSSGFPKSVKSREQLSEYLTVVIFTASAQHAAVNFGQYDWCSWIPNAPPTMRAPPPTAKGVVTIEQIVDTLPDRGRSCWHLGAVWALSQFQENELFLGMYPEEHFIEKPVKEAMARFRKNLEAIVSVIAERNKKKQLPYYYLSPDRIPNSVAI
Summary of the method: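 Crude lysate enzyme with H2DCFDA 10 μM (5 min dye pre-incubation), inhibitor pre-incubated 10 min; reaction started with 3 μM arachidonic acid plus 10 μM ATP in Tris pH 7.5, CaCl2, EDTA, 20 min at room temperature, acetonitrile stop. Fluorescein fluorescence; 7-point 4-parameter IC50, top 25 μM, 2.5% DMSO.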

[2] = test system: human whole blood (leukotriene and prostaglandin levels); assay: Eicosanoid production from human whole blood; type: cell-based; settings: human whole blood stimulated with calcium ionophore A23187 and arachidonic acid; ELISA
Summary of the method: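 Pooled heparinized whole blood from healthy or asthmatic donors was preincubated with compound for 10 min at room temperature, with 2.5% DMSO final. It was stimulated with calcium ionophore A23187 plus arachidonic acid (30 μM) in 60% ethanol for 15 min at 37 °C. Plasma leukotrienes and prostaglandins were measured by ELISA.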

[3] = test system: eicosanoid production in the rat air pouch; assay: Carrageenan-induced eicosanoid production in the rat air pouch; type: in vivo; settings: po, male Lewis rats, 3 mpk by gavage 1 hour prior to carrageenan
Procedure: Carrageenan-Induced Eicosanoid Production in the Rat Air Pouch:
Male Lewis rats (175-200 g), Charles River Laboratories, Wilmington, Mass.) were used in the study. Air pouches were produced by subcutaneous injection of 20 ml of sterile air into the intrascapular area of the back. Pouches were allowed to develop for 1 day. Animals (6 per group) were fasted with free access to water for 16 to 24 hours prior to drug administration. Drugs or vehicle were administered by gavage 1 hour prior to injection of 2 ml of a 1% suspension of carrageenan (FMC BioPolymer, Philadelphia, Pa., Cat. # GP209-NF) dissolved in saline into the pouch. At 3 hours post-carrageenan injection, 1 ml of 50 μg/ml calcium ionophore in saline (A23187, Sigma Chemical Co, St. Louis, M, Cat. #C-7522) was injected into the pouch and the pouch fluid collected 10 minutes later by lavage. The fluid was centrifuged at 3500 rpm for 10 minutes at 4° C., and the supernatants were collected for analysis. Leukotriene and prostaglandin levels were quantitated by ELISA according to the manufacturer's directions (Cayman Chemical Company, Ann Arbor, Mi).

Row | SMILES | IC50 (recombinant human 5-LOX) [µM] | IC50 [2] [µM] | nausea and emesis [1] | inhibition at 3 mg/kg [3] [%]
1 | Cn1nccc1-c1ccc(Sc2cccc(C3(C(N)=O)CCOCC3)c2)cc1 [4-(3-{[4-(1-methyl-1H-pyrazol-5-yl)phenyl]thio}phenyl)tetrahydro-2H-pyran-4-carboxamide] |  |  | produce nausea and emesis through systemic exposure | 
2 | C[C@H]1C[C@@](C(N)=O)(c2cccc(Sc3ccc(-c4ccnn4C)cc3)c2F)CCO1 [Example 29, (2S,4R)-4-(2-fluoro-3-(4-(1-methyl-1H-pyrazol-5-yl)phenylthio)phenyl)-2-methyl-tetrahydro-2H-pyran-4-carboxamide] | 0.0149 | 0.265 |  | 100
3 | Cn1nccc1Cc1ccc(Sc2cccc(C3(C(N)=O)CCOCC3)c2)cc1F [Example 33, 4-{3-[3-Fluoro-4-(2-methyl-2H-pyrazol-3-ylmethyl)phenylsulfanyl]-phenyl}-tetrahydro-pyran-4-carboxylic acid amide] | 0.11 | 0.492 |  | 76
4 | Cn1nccc1C(=O)c1ccc(Sc2cccc(C3(C(N)=O)CCOCC3)c2)cc1 [Example 34, 4-[3-({4-[(1-methyl-1H-pyrazol-5-yl)carbonyl]phenyl}thio)phenyl]tetrahydro-2H-pyran-4-carboxamide] | 0.0402 | 0.549 |  | 99.5
5 | C[C@H]1C[C@@](C(N)=O)(c2cccc(Sc3ccc(C(=O)c4ccnn4C)cc3)c2)CCO1 [Example 39, (2S,4R)-2-methyl-4-(3-(4-(1-methyl-1H-pyrazole-5-carbonyl)phenylthio)phenyl)-tetrahydro-2H-pyran-4-carboxamide] | 0.0238 | 0.407 |  | 66
6 | C[C@H]1C[C@@](C(N)=O)(c2cccc(Sc3ccc(C(=O)c4ccnn4C)cc3)c2F)CCO1 [Example 40] | 0.0219 | 0.407 |  | 96
7 | Cn1nccc1Oc1ncc(Sc2cccc(C3(C(N)=O)CCOCC3)c2)cc1Cl [Example 41, 4-(3-(5-chloro-6-(1-methyl-1H-pyrazol-5-yloxy)pyridin-3-ylthio)phenyl)-tetrahydro-2H-pyran-4-carboxamide] | 0.277 | 0.405 |  | 98

Second part, led by results:

Row | IC50 (recombinant human 5-LOX) [µM] | IC50 [2] [µM] | SMILES | nausea and emesis [1] | inhibition at 3 mg/kg [3] [%]
8 | 4.13 | 0.539 | Cn1nccc1-c1ccc(Sc2cccc(C3(C#N)CCOCC3)c2)cc1F [Example 46, 4-(3-{[3-fluoro-4-(1-methyl-1H-pyrazol-5-yl)phenyl]thio}phenyl)tetrahydro-2H-pyran-4-carbonitrile] |  | 0
9 | 0.387 | 0.124 | Cn1nccc1-c1ccc(Sc2cccc(C3(C#N)CCOCC3)c2F)cc1 [Example 48, 4-(2-fluoro-3-{[4-(1-methyl-1H-pyrazol-6-yl)phenyl]thio}phenyl)tetrahydro-2H-pyran-4-carbonitrile] |  | 38
10 | 0.554 | 0.203 | Cn1nccc1Oc1ccc(Sc2cccc(C3(C(N)=O)CCOCC3)c2)cc1C#N [Example 51, 4-[3-({3-cyano-4-[(1-methyl-1H-pyrazol-5-yl)oxy]phenyl}thio)phenyl]tetrahydro-2H-pyran-4-carboxamide] |  | 77
11 | 0.0207 | 0.272 | C[C@H]1C[C@@](C(N)=O)(c2cccc(Sc3cnc(Oc4ccnn4C)c(Cl)c3)c2F)CCO1 [Example 52, (2S,4R)-4-(3-(5-chloro-6-(1-methyl-1H-pyrazol-5-yloxy)pyridin-3-ylthio)-2-fluorophenyl)-2-methyl-tetrahydro-2H-pyran-4-carboxamide] |  | 100
12 | 0.0657 | 0.35 | C[C@H]1C[C@@](C#N)(c2cccc(Sc3ccc(C(=O)c4ccnn4C)cc3)c2F)CCO1 [Example 53, (2S,4R)+(2-fluoro-3-(4-(1-methyl-1H-pyrazole-5-carbonyl)phenylthio)phenyl)-2-methyl-tetrahydro-2H-pyran-4-carbonitrile] |  | 94
13 | 0.357 | 1.24 | CNC(=O)C1(c2cccc(Sc3ccc(-c4ccnn4C)cc3)c2Cl)CCOCC1 [Example 55, 4-(2-chloro-3-{[4-(1-methyl-1H-pyrazol-5-yl)phenyl]thio}phenyl)-N-methyltetrahydro-2H-pyran-4-carboxamide] |  | 64
14 | 0.0432 | 0.472 | Cn1ncc(Cl)c1-c1ccc(Sc2cccc(C3(C(N)=O)CCOCC3)c2)cc1F [Example 56, 4-(3-{[4-(4-chloro-1-methyl-1H-pyrazol-5-yl)-3-fluorophenyl]thio}phenyl)tetrahydro-2H-pyran-4-carboxamide] |  | 62
15 | 0.0851 | 0.514 | Cn1ncc(Cl)c1-c1ccc(Sc2cccc(C3(C(N)=O)CCOCC3)c2)cc1 [Example 57, 4-(3-{[4-(4-chloro-1-methyl-1H-pyrazol-5-yl)phenyl]thio}phenyl)tetrahydro-2H-pyran-4-carboxamide] |  | 62
16 | 0.156 | 1.14 | Cn1nccc1C(=O)c1ccc(Sc2cccc(C3(C(N)=O)CCOCC3)c2)cc1F [Example 58, 4-[3-({3-fluoro-4-[(1-methyl-1H-pyrazol-5-yl)carbonyl]phenyl}thio)phenyl]tetrahydro-2H-pyran-4-carboxamide] |  | 0
